The results in this text go back to US10588952B2, “Conjugate vaccine using trimming function of ERAP1” (SUMITOMO DAINIPPON PHARMA CO., LTD., priority 2013, dated 2020).

In brackets after ≈: the same amount, converted by molar mass. Bridge positions count the residues as written; N and C are the ends. Peptide text beside a SMILES is read from it. I, II: the chains in the order shown.

Data set [1] has as its system HLA-A0201 transgenic mouse. Kind of data set: In vivo CTL induction ability, IFNγ ELISPOT, formula (11) (Experimental Example 13). As to conditions: 250 μg/site with IFA, 17 hr. The method, then:
The compound represented by the formula (11) synthesized in Example 109 was evaluated for the CTL induction ability by an in vivo CTL induction test using an HLA-A0201 transgenic mouse. The compound represented by the formula (11): […]
To evaluate whether CTLs to each of the peptides (SEQ ID NOs: 19 and 88) endogenously presented by cancer cells was induced, the compound represented by the formula (11) was administered to the HLA-A0201 transgenic mouse. That is, it was determined whether IFNγ production was observed by re-stimulation, with the peptide (SEQ ID NO: 19 or 88), of the splenocyte derived from the above-mentioned mouse administered with the compound represented by the formula (11).
Specifically, the compound represented by the formula (11) was dissolved in dimethyl sulfoxide (DMSO) at 80 mg/mL, further diluted with water for injection to 10 mg/mL, and emulsified by mixing with an equal amount of incomplete Freund's adjuvant (IFA). The emulsified compound was intradermally administered to 2 sites at the base of tail of the mouse at 250 μg/site. One week later, the mouse was euthanized with CO2 gas, the spleen was isolated, and splenocytes were prepared. IFNγ ELISPOT assay kit was used for the measurement of IFNγ production. […] The number of spots that developed color was measured by ImmunoSpot Analyzer (manufactured by C.T.L.). […]

The test system of data set [2] is HLA-A0201 transgenic mouse. Kind of data set: In vivo CTL induction ability, IFNγ ELISPOT, formula (5) (Experimental Example 14). The settings on record: 250 μg/site with IFA, 17 hr. The method, then:
The compound represented by the formula (5) synthesized in Example 110 was evaluated for the CTL induction ability by an in vivo CTL induction test using HLA-A0201 transgenic mouse. The compound represented by the formula (5): […]
Specifically, the compound represented by the formula (5) was dissolved in dimethyl sulfoxide (DMSO) at 80 mg/mL, further diluted with water for injection to 10 mg/mL, and emulsified by mixing with an equal amount of incomplete Freund's adjuvant (IFA). The emulsified compound was intradermally administered to 2 sites at the base of tail of the mouse at 250 μg/site. One week later, the mouse was euthanized with CO2 gas, the spleen was isolated, and splenocytes were prepared. IFNγ ELISPOT assay kit was used for the measurement of IFNγ production. On the previous day of splenocyte preparation, an ELISPOT plate was treated with an anti-mouse IFNγ antibody, and blocked with RPMI1640 medium containing 10% FBS the next day. The prepared HLA-A0201 transgenic mouse-derived splenocytes were plated at 0.25×10^6 cells/well on the blocked ELISPOT plate. […] After the culture, the supernatant was removed, and the ELISPOT plate was allowed to develop color according to the attached protocol. The number of spots that developed color was measured by ImmunoSpot Analyzer (manufactured by C.T.L.).

In data set [3] the target is T1, ERAP1 (Homo sapiens, UniProt Q9NZ08). Kind of data set: Test of trimming of N-terminal amino acid by ERAP1 (Experimental Example 11, Examples 50, 56, 64, 67). In kind it is biochemical. As to conditions: Proteinase-3 169-177 peptide obtained by ERAP1 trimming; from HPLC AUC. The method, then: The peptides synthesized in Examples 50, 56, 64 and 67 were evaluated for N-terminal amino acid trimming efficiency using ERAP1. 50 μl of ERAP1 solution (10 μg/ml) in pH 8.0, 20 mM Tris.HCl-100 mM NaCl buffer (Tris.HCl buffer) was added to 142 μl of Tris.HCl buffer. 10 mM peptide solution in DMSO (2.0 μl) and 6.0 μL of DMSO were added to the aforementioned ERAP1 solution, and the mixture was blended well and stood at 30° C. […] The peptide to be obtained by trimming was chemically synthesized separately, and analyzed under similar conditions in the absence of the enzyme. […]
T1 sequence (Q9NZ08 whole entry): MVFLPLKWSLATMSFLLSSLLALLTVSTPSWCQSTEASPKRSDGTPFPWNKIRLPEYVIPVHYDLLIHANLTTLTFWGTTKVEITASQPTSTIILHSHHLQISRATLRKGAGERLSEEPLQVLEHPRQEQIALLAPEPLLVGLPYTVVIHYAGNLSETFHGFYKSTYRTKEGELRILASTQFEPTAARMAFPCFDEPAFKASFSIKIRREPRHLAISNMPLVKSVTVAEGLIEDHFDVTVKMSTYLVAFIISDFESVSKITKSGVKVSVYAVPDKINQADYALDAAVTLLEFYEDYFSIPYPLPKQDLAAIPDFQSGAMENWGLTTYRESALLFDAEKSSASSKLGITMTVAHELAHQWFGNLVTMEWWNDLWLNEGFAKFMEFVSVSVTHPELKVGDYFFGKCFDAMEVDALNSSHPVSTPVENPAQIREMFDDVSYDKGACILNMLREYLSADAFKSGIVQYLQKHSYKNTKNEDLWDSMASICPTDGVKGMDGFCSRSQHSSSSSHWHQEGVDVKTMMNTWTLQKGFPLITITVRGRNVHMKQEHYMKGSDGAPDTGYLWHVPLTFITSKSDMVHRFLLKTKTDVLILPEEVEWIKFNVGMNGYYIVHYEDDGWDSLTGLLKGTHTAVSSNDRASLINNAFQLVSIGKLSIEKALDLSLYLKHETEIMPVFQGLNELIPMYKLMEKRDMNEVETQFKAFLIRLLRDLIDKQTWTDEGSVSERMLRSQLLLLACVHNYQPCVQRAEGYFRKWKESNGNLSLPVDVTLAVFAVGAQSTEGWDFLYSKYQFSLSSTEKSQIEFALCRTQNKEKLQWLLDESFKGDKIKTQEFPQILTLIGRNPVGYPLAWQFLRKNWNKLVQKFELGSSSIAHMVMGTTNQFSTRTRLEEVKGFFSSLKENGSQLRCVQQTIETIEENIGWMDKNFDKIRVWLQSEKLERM
pump: UFLC manufactured by Shimadzu […]
solution: 0.1% TFA H2O(A)-0.1% TFA CH3CN(B) […]
detection wavelength: λ=220 nm gradient: concentration of SOLUTION B was raised from 10% to 50% from 0.0 min to 8.5 min

The target of data set [4] is T1, ERAP1. Put plainly: Time-course changes of trimming of N-terminal amino acid by ERAP1 (Experimental Example 2). The data set is classed as biochemical. The settings on record: peptide obtained by trimming (SEQ ID NO: 53, 43 or 19), ERAP1 solution 0.5 mg/ml, room temperature. As for the experimental part: 20 μl of ERAP1 solution (0.5 mg/ml) in Tris.HCl buffer was added to 172 μl of Tris.HCl buffer. 10 mM peptide solution in DMSO (8.0 μl) was added to the aforementioned ERAP1 solution, and the mixture was blended well and stood at room temperature. […]
pump: UFLC manufactured by Shimadzu column: Shim-pack XR-ODS 3.0 mmi.d.×75 mm solution: 0.05% TFA H2O(A)-0.05% TFA CH3CN(B) […]
detection wavelength: λ=220 nm gradient: Concentration of SOLUTION B was raised from 1.0% 70% from 0.0 min to 5.0 min […]
The peptide to be obtained by the trimming of the N-terminal amino acid(s) by ERAP1 is, […]

Data set [5] has as its system HLA-A0201 transgenic mouse. Kind of data set: In vivo CTL induction ability, IFNγ ELISPOT, Cys-extended peptides (Experimental Example 3). The settings on record: intradermal, 2 sites, 50 μg/site with IFA; splenocytes one week later re-stimulated with Cys non-extended or Cys-extended peptide 10 μg/mL.
Description: The CTL induction ability of each peptide extended by cysteine (Cys) (Cys-extended peptide) shown in Table 23 was evaluated by in vivo CTL induction test using an HLA-A0201 transgenic mouse.
HLA-A0201 transgenic mouse (C57BL/6CrHLA-A2.1DR1) is a mouse which is defective in mouse MHC, and expresses a chimera HLA of human MHC HLA-A0201 and mouse MHC H-2D^b, and HLA-DRB1*0101.
The emulsified peptide was intradermally administered to 2 sites at the base of tail of the mouse at 50 μg/site. One week later, the mouse was euthanized with CO2 gas, the spleen was isolated, and splenocytes were prepared. IFNγ ELISPOT assay kit was used for the measurement of IFNγ production. On the previous day of splenocyte preparation, an ELISPOT plate was treated with an anti-mouse IFNγ antibody, and blocked with RPMI1640 medium containing 10% FBS the next day. The prepared HLA-A0201 transgenic mouse-derived splenocytes were plated at 2.5×10^5 cells/well on the blocked ELISPOT plate. […] These splenocytes were cultivated for 20 hr at 37° C., 5% CO2, whereby peptide re-stimulation in vitro was performed. Thereafter, the supernatant was removed, and the ELISPOT plate was allowed to develop color according to the attached protocol. The number of spots that developed color was measured by KS ELISPOT.
Data set [6] can be described thus: Measurement of solubility in isotonic buffer (Experimental Examples 7 and 8).
Description: (§1) To prepare a test solution, about 1 mg of a test product was measured and the isotonic buffer (0.5 mL) was added thereto. The prepared solution was shaken at room temperature for 90 min (shaking conditions: RECIPRO SHAKER SR-1N manufactured by TAITEC, Speed=8), centrifuged (15000 rpm, 5 min, room temperature), and the supernatant after centrifugation was used as a test solution.
(§2) About 1 mg of the test product was accurately measured, dissolved in 0.1% TFA water/acetonitrile=1/1, made the total amount 10 mL, and this was used as a standard solution of the test product.
(§3) The standard solution of the test product and the test solution are analyzed by HPLC (under the analysis conditions described in Table 34), and the solubility of the test product is calculated from the ratio of peak area compared to the standard solution.
(§4) column: Chemcopack Quicksorb (4.6 mmφ×150 mm, 5 μm)
(§5) manufactured by Chemco Scientific Co., Ltd.
(§6) mobile phase: SOLUTION A; 0.1% TFA water, SOLUTION B;
0.1% TFA acetonitrile solution
column temperature: room temperature
(§7) detection wavelength: UV 254 nm, 230 nm (2 wavelength detection)
sample injection volume: 10
Setting [7] is: splenocytes pulsed with SEQ ID NO: 19, 10 μg/mL.

Description for physchem: as §1, §2, §3, §4, §5, §6
0.1% TFA acetonitrile solution
column temperature: room temperature
as §7
sample injection volume: 10

One may read the solubility as the dissolved amount per volume that the medium holds. The low end stands for a poorly soluble substance, the high end for a readily soluble substance. On to `CC[C@H](C)[C@H](NC(=O)[C@H](Cc1c[nH]c2ccccc12)NC(=O)[C@H](CCSC)NC(=O)[C@H](CC(C)C)NC(=O)[C@H](CC(C)C)NC(=O)[C@@H](N)CO)C(=O)N[C@H](C(=O)N[C@@H](CCC(N)=O)C(=O)N[C@@H](CSSC[C@H](N)C(=O)NCC(=O)N[C@@H](CC(C)C)C(=O)N[C@@H](Cc1ccc(O)cc1)C(=O)N[C@@H](CC(=O)O)C(=O)NCC(=O)N[C@@H](CCSC)C(=O)N[C@@H](CCC(=O)O)C(=O)N[C@@H](Cc1c[nH]cn1)C(=O)N[C@@H](CC(C)C)C(=O)O)C(=O)O)[C@@H](C)O` [Example 109], for which the “induction of CTLs specific to the peptide shown by SEQ ID NO: 19” value in data set [1] (setting [7]) is “can induce CTLs”. Besides, the “induction of CTLs specific to the peptide shown by SEQ ID NO: 88” value in data set [1] (splenocytes pulsed with SEQ ID NO: 88, 10 μg/mL) is recorded as “can induce CTLs”. Besides, the solubility at 90 min in the data set “physchem” (pH 6) came to 79 µg/mL (≈ 35.4 µM); in the data set “physchem” (pH 7.4), 700 µg/mL (≈ 314 µM).
One may read the thermodynamic solubility as the concentration in solution at equilibrium with solid. For the compound `CSCC[C@H](NC(=O)CNC(=O)[C@H](CC(=O)O)NC(=O)[C@H](Cc1ccc(O)cc1)NC(=O)[C@H](CC(C)C)NC(=O)CNC(=O)[C@@H](N)CSSC[C@H](N)C(=O)N[C@H](C(=O)N[C@@H](CC(C)C)C(=O)N[C@@H](CCC(N)=O)C(=O)N[C@@H](CCC(=O)O)C(=O)N[C@@H](CC(C)C)C(=O)N[C@@H](CC(N)=O)C(=O)N[C@H](C(=O)N[C@H](C(=O)N[C@H](C(=O)O)C(C)C)[C@@H](C)O)C(C)C)C(C)C)C(=O)N[C@@H](CCC(=O)O)C(=O)N[C@@H](Cc1c[nH]cn1)C(=O)N[C@@H](CC(C)C)C(=O)O` [Example 110] (I: H-CGLYDGMEHL-OH / II: H-CVLQELNVTV-OH; disulfide I:1-II:1), the “induction of CTLs specific to the peptide shown by SEQ ID NO: 19” value in data set [2] (setting [7]) is “can induce CTLs”. The “induction of CTLs specific to the peptide shown by SEQ ID NO: 43” value in data set [2] (splenocytes pulsed with SEQ ID NO: 43, 10 μg/mL) is recorded as “can induce CTLs”. For the same compound, the results for the thermodynamic solubility at 90 min in “physchem” (pH 6) and in “physchem” (pH 7.4) were 511 µg/mL (≈ 227 µM) and more than 1000 µg/mL, respectively.
Regarding H-ACVLQELNVTV-OH [Example 50], the “formation rate of VLQELNVTV (SEQ ID NO: 43)” value at ERAP1 [3] came to 1.8%.
In the case of H-CGLYDGMEHL-OH [Example 25], on ERAP1 [4], the “formation rate(%) 1 hr later” value came to 95.1%, the “formation rate(%) 2 hr later” value is listed as 106%, the “formation rate(%) 4 hr later” value turned out to be 100% and the “formation rate(%) 8 hr later” value is recorded as 101%. For the same compound, in data set [5], the “in vivo CTL induction ability (IFNγ ELISPOT)” value is listed as “has an in vivo CTL induction ability”.
The matching figures for H-CVLQELNVTV-OH [Example 21]: 83.4%, 85.6%, 78.8%, 83.9% and “has an in vivo CTL induction ability”.
As to H-GCVLQELNVTV-OH [Example 56], on ERAP1 [3], the “formation rate of VLQELNVTV (SEQ ID NO: 43)” value turned out to be 1.1%.
As for H-GLYDGMEHL-OH [SEQ ID NO: 19], the solubility (thermodynamic) at 90 min in data set [6] (pH 6) and in data set [6] (pH 7.4) was more than 1000 µg/mL in each case.
In the case of H-SCVLQELNVTV-OH [Example 64], the “formation rate of VLQELNVTV (SEQ ID NO: 43)” value on ERAP1 [3] stood at 1.3%.
In the case of H-VYGFVRACL-OH [SEQ ID NO: 87], the solubility (thermodynamic) at 90 min in data set [6] (pH 6) and in data set [6] (pH 7.4) was more than 1000 µg/mL in each case.
As for H-YCVLQELNVTV-OH [Example 67], on ERAP1 [3], the “formation rate of VLQELNVTV (SEQ ID NO: 43)” value turned out to be 0.7%.
